From patent US7652015B2, “Kinase inhibitors” (Eli Lilly and Company, priority 2006, dated 2010) come the findings set out here.

Molecules are shown by their SMILES. Counter-ions that a name gives are not always drawn.

The first assay relates to p-MAPKAPK2. Briefly: Inhibition of p-MAPKAPK2 in vitro, anisomycin-stimulated RAW 264.7 cells, ELISA. The conditions noted are these: Mus musculus, RAW264.7; RAW 264.7 cells, 2 hours compound, anisomicin 100 ug/ml 30 minutes; read-out: IC50, inhibition of p-MAPKAPK2 in vitro. It counts as cell-based, murine. As to the method: RAW 264.7 cells (a murine monocytic/macrophage line ATCC) are seeded at a density of 50,000 cells/well in 96-well plates with RPMI-1640 medium plus 10% fetal bovine serum (FBS) and allowed to settle and adhere to the bottom of the well for 48 hours. After reaching confluence, cells are treated for 2 hours with 10 serial dilutions of different compounds. A control compound is always included. After 2 hours, anisomicin (100 ug/ml) is added and cells are incubated for 30 minutes at 37° C. under a 5% CO2 atmosphere. Then, cells are fixed and treated with hydrogen peroxide in order to remove endogenous peroxidase. Finally, plates are blocked with FBS, washed, and an ELISA assay is carried out by using an antiphospho-MAPKAPK (Thr 334, Cell Signalling, Cat # 3041) antibody and ahP-Conjugated Secondary Antibody. This reaction is detected by using FEMTO (Pierce) which is an enhanced chemiluminiscent substrate ahP that results in rapid kinetic light output and high signal intensity.
For `Cc1ccc(-n2nc(C(C)(C)C)cc2NC(=O)Nc2ccc(N3CCN(C(=O)c4c(Cl)cccc4Cl)CC3)nc2C)cc1` [Example 45, 1-(5-tert-Butyl-2-p-tolyl-2H-pyrazol-3-yl)-3-{6-[4-(2,6-dichloro-benzoyl)-piperazin-1-yl]-2-methyl-pyridin-3-yl}-urea methanesulfonate], the IC50 (in general, the midpoint of a concentration-inhibition curve) was found to be 6.7 nM. On to `Cc1ccc(-n2nc(C(C)(C)C)cc2NC(=O)Nc2ccc(OC3CCN(C(=O)C4(C)CC4)CC3)nc2C)cc1` [Example 77, 1-(5-tert-Butyl-2-p-tolyl-2H-pyrazol-3-yl)-3-{2-methyl-6-[1-(1-methyl-cyclopropanecarbonyl)-piperidin-4-yloxy]-pyridin-3-yl}-urea], for which the IC50 was found to be 176 nM.

Regarding `Cc1ccc(-n2nc(C(C)(C)C)cc2NC(=O)Nc2ccc(OC3CCN(C(=O)c4ccc(Cl)s4)CC3)nc2)cc1` [Example 92, 1-(5-tert-Butyl-2-p-tolyl-2H-pyrazol-3-yl)-3-{6-[1-(5-chloro-thiophene-2-carbonyl)-piperidin-4-yloxy]-pyridin-3-yl}-urea], the IC50 was 16 nM. Turning to `Cc1ccc(-n2nc(C(C)(C)C)cc2NC(=O)Nc2cnc(N3CCN(C(=O)C4(C)CC4)CC3)cc2C)cc1` [Example 128, 1-(5-tert-Butyl-2-p-tolyl-2H-pyrazol-3-yl)-3-{4-methyl-6-[4-(1-methyl-cyclopropanecarbonyl)-piperazin-1-yl]-pyridin-3-yl}-urea mesylate], the IC50 came out at 286 nM.

A further assay relates to p-MAPKAPK2. The description is as above. It counts as cell-based, murine. The following applies: Mus musculus, RAW264.7, in the presence of 100% serum.
Regarding `Cc1ccc(-n2nc(C(C)(C)C)cc2NC(=O)Nc2ccc(N3CCN(C(=O)c4ccccc4Cl)CC3)nc2C)cn1` [Example 111, 1-[5-tert-Butyl-2-(6-methyl-pyridin-3-yl)-2H-pyrazol-3-yl]-3-{6-[4-(2-chloro-benzoyl)-piperazin-1-yl]-2-methyl-pyridin-3-yl}-urea mesylate], the IC50 was at most 500 nM.

With `Cc1ccc(-n2nc(C3(C(F)(F)F)CC3)cc2NC(=O)Nc2ccc(N3CCN(C(=O)c4sccc4C)CC3)nc2C)cn1` [Example 113, 1-{2-Methyl-6-[4-(3-methyl-thiophene-2-carbonyl)-piperazin-1-yl]-pyridin-3-yl}-3-[2-(6-methyl-pyridin-3-yl)-5-(1-trifluoromethyl-cyclopropyl)-2H-pyrazol-3-yl]-urea mesylate], the IC50 was at most 500 nM.

Turning to `Cc1ccc(-n2nc(C3(C(F)(F)F)CC3)cc2NC(=O)Nc2ccc(N3CCN(C(=O)c4ccccc4Cl)CC3)nc2C)cn1` [Example 114, 1-{6-[4-(2-Chloro-benzoyl)-piperazin-1-yl]-2-methyl-pyridin-3-yl}-3-[2-(6-methyl-pyridin-3-yl)-5-(1-trifluoromethyl-cyclopropyl)-2H-pyrazol-3-yl]-urea mesylate], the IC50 is at most 500 nM.

Turning to `Cc1ccc(-n2nc(C3(C(F)(F)F)CC3)cc2NC(=O)Nc2ccc(N3CCN(C(=O)c4ccccc4F)CC3)nc2C)cn1` [Example 115, 1-{6-[4-(2-Fluoro-benzoyl)-piperazin-1-yl]-2-methyl-pyridin-3-yl}-3-[2-(6-methyl-pyridin-3-yl)-5-(1-trifluoromethyl-cyclopropyl)-2H-pyrazol-3-yl]-urea mesylate], the half-maximal inhibitory concentration (IC50) was at most 500 nM. Still for that read-out and setting: to `Cc1ccc(-n2nc(C(C)(CF)CF)cc2NC(=O)Nc2ccc(N3CCN(C(=O)c4ccccc4C)CC3)nc2C)cc1` [Example 119, 1-[5-(2-Fluoro-1-fluoromethyl-1-methyl-ethyl)-2-p-tolyl-2H-pyrazol-3-yl]-3-{2-methyl-6-[4-(2-methyl-benzoyl)-piperazin-1-yl]-pyridin-3-yl}-urea] belongs at most 500 nM.
